The conditions of series [1]: rat, in vivo, iv, 1.5 h; cited from earlier work.
The conditions of series [2]: mouse, in vivo, 5 min; cited from earlier work.
For the next series, the system named is renal tubular transport. The conditions noted are these: mouse, in vivo.
For series [3] the following is noted: human, in vivo; cited from earlier work.
For series [4] the following is noted: rat, in vivo; cited from earlier work.
For series [5] the following is noted: in vivo; cited from earlier work.
Another series deals with plasma proteins. As to conditions: cited from earlier work.

Experimental for renal tubular transport: A dose of 50 mg/kg of probenicid was given 10 minutes prior to injection of radiochemicals. OIH was injected simultaneously.
*Values are mean and S.E.M. percent injected dose at 10 min. post

“1,2-Bis(mercaptoacetamido)ethane [Tc-DADS]”: the “biliary excretion of radioactivity in the absence of renal function” value in series [1] is 19%. Besides, in series [2], the Kidneys is recorded as 12.6 % of the dose and the in the urine was 28%. The “decrease in renal excretion with probenicid, in words” value in the series with renal tubular transport was “decrease in renal excretion of Tc-DADS to a much greater extent than OIH”. In the series with renal tubular transport (10 min), this substance returned a Blood of 1.85 percent injected dose, an Intestines of 4.69 percent injected dose, a Kidneys of 4.25 percent injected dose and a Liver of 2.24 percent injected dose. Besides, in series [3], the distribution of radioactivity result is on record as “confined radioactivity to the vascular system rather than the extracellular space as with Tc-DTPA”, the “effect of decreased renal function on renal excretion” value is listed as “decreased renal function reduced renal excretion of Tc-DADS to a greater extent than OIH” and the hepatobiliary excretion entry is recorded as “hepatobiliary excretion became significant”. Moreover, in series [4], the “time at which radioactivity remaining in the blood was 2%” value is 68 min and the “time at which radioactivity remaining in the blood was 5%” value was 19 min. Further, in series [5], the renal retention entry is on record as “no evidence of significant renal retention”. The protein binding value in the series on plasma proteins is listed as 95%.

Source of the values: patent US4444690A, “Technetium chelates” (priority 1982, dated 1984).
